Reference: patent US20190382396A1, “SALTS OF BICYCLO[1.1.1]PENTANE INHIBITORS OF DUAL LEUCINE ZIPPER (DLK) KINASE FOR THE TREATMENT OF DISEASE” (Board of Regents, The University of Texas System, priority 2018, published 2019)
Like-named read-outs stand apart in the source and are kept apart here.

Assays:
[1] = Solubility of hydrogen fumarate salt 11 (1000 mg scale-up batch); format: physicochemical
[2] = Solubility in physiologically relevant solutions (SGF, FaSSIF, FeSSIF); format: physicochemical; conditions: 25±0.5° C.; for solubility at 24 h: 25 °C, thermodynamic from solid
Method: Solubility of the free base 1 and the selected salts 8, 9, 10, and 11 in physiologically relevant solutions were examined. For each material, aliquots were added to 2 ml vials containing 500 uL of either SGF, FaSSIF, or FeSSIF, which were then sealed. The mixtures were kept shaking by thermomixer at 700 rpm, 25±0.5° C. for 24 h to facilitate the dissolution and then centrifuged by 96-well plates at 3000 rpm for 2 min. The filter liquors were diluted with diluents (ACN/water, 50/50) and analyzed by HPLC.

solubility ([1]; aqueous with cosolvent or surfactant or cyclodextrin, 1/1 (v/v) Acetone/H2O, 50° C.): 50 to 100 mg/mL | solubility ([1]; aqueous with cosolvent or surfactant or cyclodextrin, 1/1 (v/v) Acetone/H2O, RT): < 33 mg/mL | solubility ([1]; aqueous with cosolvent or surfactant or cyclodextrin, 1/1 (v/v) EtOH/H2O, 50° C.): 50 to 100 mg/mL | solubility ([1]; aqueous with cosolvent or surfactant or cyclodextrin, 1/1 (v/v) EtOH/H2O, RT): 20 to 33 mg/mL | solubility ([1]; ethanol, organic solvent or mixture, EtOH, 50° C.): 20 to 33 mg/mL | solubility ([1]; ethanol, organic solvent or mixture, EtOH, RT): < 20 mg/mL | solubility ([1]; organic solvent or mixture, ACN, 50° C.): < 10 mg/mL | solubility ([1]; organic solvent or mixture, ACN, RT): < 10 mg/mL | solubility ([1]; organic solvent or mixture, Acetone, 50° C.): 10 to 20 mg/mL | solubility ([1]; organic solvent or mixture, Acetone, RT): < 10 mg/mL | solubility ([1]; organic solvent or mixture, DCM, 50° C.): < 10 mg/mL | solubility ([1]; organic solvent or mixture, DCM, RT): < 10 mg/mL | solubility ([1]; organic solvent or mixture, DMF, RT): > 100 mg/mL | solubility ([1]; organic solvent or mixture, DMSO, 50° C.): > 100 mg/mL | solubility ([1]; organic solvent or mixture, DMSO, RT): < 100 mg/mL | solubility ([1]; organic solvent or mixture, Dioxane, 50° C.): 20 to 33 mg/mL | solubility ([1]; organic solvent or mixture, Dioxane, RT): < 20 mg/mL | solubility ([1]; organic solvent or mixture, EtOAc, 50° C.): < 10 mg/mL | solubility ([1]; organic solvent or mixture, EtOAc, RT): < 10 mg/mL | solubility ([1]; organic solvent or mixture, Heptane, 50° C.): < 10 mg/mL | solubility ([1]; organic solvent or mixture, Heptane, RT): < 10 mg/mL | solubility ([1]; organic solvent or mixture, IPA, 50° C.): 20 to 33 mg/mL | solubility ([1]; organic solvent or mixture, IPA, RT): 10 to 20 mg/mL | solubility ([1]; organic solvent or mixture, MEK, 50° C.): 10 to 20 mg/mL | solubility ([1]; organic solvent or mixture, MEK, RT): < 10 mg/mL | solubility ([1]; organic solvent or mixture, MTBE, 50° C.): < 10 mg/mL | solubility ([1]; organic solvent or mixture, MTBE, RT): < 10 mg/mL | solubility ([1]; organic solvent or mixture, MeOH, 50° C.): 50 to 100 mg/mL | solubility ([1]; organic solvent or mixture, MeOH, RT): 25 to 50 mg/mL | solubility ([1]; organic solvent or mixture, THF, 50° C.): 33 to 50 mg/mL | solubility ([1]; organic solvent or mixture, THF, RT): < 10 mg/mL | solubility ([1]; organic solvent or mixture, Toluene, 50° C.): < 10 mg/mL | solubility ([1]; organic solvent or mixture, Toluene, RT): < 10 mg/mL | solubility ([1]; water, H2O, 50° C.): 10 to 20 mg/mL | solubility ([1]; water, H2O, RT): < 10 mg/mL | solubility at 24 h ([2]; simulated gastric fluid, SGF, read-out: Solubility SGF Conc): 5.81 mg/mL | solubility at 24 h ([2]; FaSSIF, read-out: Solubility FaSSIF Conc): 0.459 mg/mL | solubility at 24 h ([2]; FeSSIF, read-out: Solubility FeSSIF Conc): 0.646 mg/mL | FaSSIF pH after 24 h ([2]; FaSSIF): 4.85 | FeSSIF pH after 24 h ([2]; FeSSIF): 4.84 | SGF pH after 24 h ([2]; SGF): 3.01
Structure (SMILES): CC(C)c1nc(-c2cnc(N)c(OC(F)(F)F)c2)cn1C12CC(N3CCOCC3)(C1)C2.O=C(O)/C=C/C(=O)O [Example 11, 5-(2-isopropyl-1-(3-morpholinobicyclo[1.1.1]pentan-1-yl)-1H-imidazol-4-yl)-3-(trifluoromethoxy)pyridin-2-amine hydrogen fumarate]
